System: HIV-1 (strain IIIB)
Assay: Antiviral activity assay in MT4 cells (propidium iodide based)
Assay type: cell-based
Details: Human immunodeficiency virus 1, IIIB; wild type HIV-1 virus, MT4 cells; read-out: Wildtype virus - IC50
Experimental: Antiviral Activity Assay in MT4 Cells
Aliquots of the test compounds were serially diluted in medium (RPMI 1640, 10% fetal calf serum (FCS), and gentamycin) in 96-well plates (Costar 3598) using a Cetus Pro/Pette. Exponentially growing MT4 cells were harvested and centrifuged at 1000 rpm for 10 min in a Jouan centrifuge (model CR 4 12). Cell pellets were resuspended in fresh medium (RPMI 1640, 20% FCS, 20% IL-2, and gentamycin) to a density of 5×10^5 cells/ml. Cell aliquots were infected by the addition of HIV-1 (strain IIIB) diluted to give a viral multiplicity of infection of 100×TCID50. A similar cell aliquot was diluted with medium to provide a mock-infected control. Cell infection was allowed to proceed for 1 hr at 37° in a tissue culture incubator with humidified 5% CO2 atmosphere. After the 1 hr incubation the virus/cell suspensions were diluted 6-fold with fresh medium, and 125 μl of the cell suspension was added to each well of the plate containing pre-diluted compound. Plates were then placed in a tissue culture incubator with humidified 5% CO2 for 5 days. At the end of the incubation period, 27 μl of 5% Nonidet-40 was added to each well of the incubation plate. After thorough mixing with a Costar multitip pipetter, 60 μl of the mixture was transferred to filter-bottomed 96-well plates. The plates were analyzed in an automated assay instrument (Screen Machine, Idexx Laboratories). The assay makes use of a propidium iodide dye to estimate the DNA content of each well.
The anti-viral potency in MT-4 cells of the compounds set forth in Tables 1 and 2 was determined using the above technique.

IC50 [nM] | SMILES
10 to 100 | CNC(=O)OCCCC(C)(C)CN(C[C@@H](O)[C@H](Cc1ccc(OCc2ccccc2)cc1)NC(=O)OC1COCOC1)S(=O)(=O)c1ccc2c(c1)OCO2 [Compound 363, 1,3-Dioxan-5-yl N-((1S,2R)-1-[(4-benzyloxy)benzyl-3-[2,2-dimethyl-5-(N′-methylcarbamoyloxy)-pentyl][(3,4-methylenedioxyphenyl)sulfonyl]amino-2-hydroxypropyl) carbamate]
10 to 100 | CC(C)CN(C[C@@H](O)[C@H](Cc1ccc(OCCCN)cc1)NC(=O)OC1CO[C@H]2OCC[C@@H]12)S(=O)(=O)c1ccc2c(c1)OCO2 (stereo in doubt) [Compound 222, (3R,3aS,6aR)-hexahydrofuro[2,3-b]furan-3-yl (1S,2R)-1-[4-(3-aminopropoxy)benzyl]-3-[(1,3-benzodioxol-5-ylsulfonyl)(isobutyl)amino]-2-hydroxypropylcarbamate]
10 to 100 | CC(C)CN(C[C@@H](O)[C@H](Cc1ccc(OCc2ccccc2)cc1)NC(=O)O[C@H]1CO[C@H]2OCC[C@H]21)S(=O)(=O)c1ccc2c(c1)OC(F)(F)O2 [Compound 340, (3R,3aS,6aR)-hexahydrofuro[2,3-b]furan-3-yl (1S,2R)-1-[4-(benzyloxy)benzyl]-3-[[(2,2-difluoro-1,3-benzodioxol-5-yl)sulfonyl](isobutyl)amino]-2-hydroxypropylcarbamate]
10 to 100 | CCOC(CCOC(=O)N[C@@H](Cc1ccc(OCc2ccccc2)cc1)[C@H](O)CN(CC(C)C)S(=O)(=O)c1ccc2c(c1)OCO2)OCC [Compound 328, 3,3-Diethoxypropyl (1S,2R)-3-[(1,3-benzodioxol-5-ylsulfonyl)(isobutyl)amino]-1-[4-(benzyloxy)benzyl]-2-hydroxypropylcarbamate]
10 to 100 | CC(C)(CCCC#N)CN(C[C@@H](O)[C@H](Cc1ccc(OCc2ccccc2)cc1)NC(=O)OC1COCOC1)S(=O)(=O)c1ccc2c(c1)OCO2 [Compound 306, 1,3-Dioxan-5-yl (1S,2R)-3-[(1,3-benzodioxol-5-ylsulfonyl)(5-cyano-2,2-dimethylpentyl)amino]-1-[4 (benzyloxy)benzyl]-2-hydroxypropylcarbamate]
10 to 100 | Cc1cccc(C)c1OCC(=O)N[C@@H](Cc1ccc(OCc2ccccc2)cc1)[C@H](O)CN(CC(C)C)S(=O)(=O)c1ccc2c(c1)OCO2 [Compound 325, N-{(1S,2R)-3-[(1,3-Benzodioxol-5-ylsulfonyl)(isobutyl)amino]-1-[4-(benzyloxy)benzyl]-2-hydroxypropyl}-2-(2,6-dimethylphenoxy)acetamide]

SMILES | IC50 [nM]
CC(C)CN(C[C@@H](O)[C@H](Cc1ccc(OCCCC(N)=O)cc1)NC(=O)O[C@H]1CO[C@H]2OCC[C@H]21)S(=O)(=O)c1ccc2c(c1)OCO2 [Compound 285, (3R,3aS,6aR)-hexahydrofuro[2,3-b]furan-3-yl (1S,2R)-1-[4-(4-amino-4-oxobutoxy)benzyl]-3-[(1,3-benzodioxol-5-ylsulfonyl)(isobutyl)amino]-2-hydroxypropylcarbamate] | 10 to 100

Same assay, conditions: Human immunodeficiency virus 1, MT4, 120 h; MT-4 cells, HIV-1 strain IIIB, 5 days; read-out: IC50 (Antiviral Activity of Compounds of the Invention)

IC50 [nM] | SMILES
1 to 10 | CC(C)CN(C[C@@H](O)[C@H](Cc1ccc(OCCn2cccn2)cc1)NC(=O)O[C@H]1CO[C@H]2OCC[C@H]21)S(=O)(=O)c1ccc2c(c1)OCO2 [Compound 57, Bis-THF Methylenedioxybenzenesulfonamide Ethylpyrazole Tethered Product]
10 to 100 | CC(C)CN(C[C@@H](O)[C@H](Cc1ccc(OCCCN2CCOCC2)cc1)NC(=O)OC(C)(C)C)S(=O)(=O)c1ccc2c(c1)OCO2 [Compound 20, Boc Methylenedioxybenzenesulfonamide Propylmorpholine Tethered Product]
< 1 | CC(C)CN(C[C@@H](O)[C@H](Cc1ccc(OCc2ccccc2)cc1)NC(=O)O[C@H]1CO[C@H]2OCC[C@H]21)S(=O)(=O)c1ccc2nc(N)sc2c1 [Compound 44, Bis-THF Benzothiazolesulfonamide Benzyl Ether]

Same assay, conditions: MT-4 cells, HIV-1 strain IIIB, 5 days; read-out: IC50 (Antiviral Activity of Compounds of the Invention)

SMILES | IC50 [nM]
COCCN(CCOC)CCOc1ccc(CC(NC(=O)OC(C)(C)C)C(O)CN(CC(C)C)S(=O)(=O)c2cccc(N)c2)cc1 (centres unmarked) [Compound 13] | > 100
COCCN(CCOC)CCOc1ccc(CC(NC(=O)OC2CCOC2)C(O)CN(CC(C)C)S(=O)(=O)c2cccc(N)c2)cc1 (centres unmarked) [Compound 22, bis-THF m-aminophenylsulfonamide benzyl ether] | 10 to 100
CC(C)CN(CC(O)C(Cc1ccc(OCCCN2CCOCC2)cc1)NC(=O)OC(C)(C)C)S(=O)(=O)c1ccc(N)cc1 (centres unmarked) [Compound 11] | > 100
COCCN(CCOC)CCOc1ccc(CC(NC(=O)OC2COC3OCCC23)C(O)CN(CC(C)C)S(=O)(=O)c2ccc(N)cc2)cc1 (centres unmarked) [Compound 27] | > 100

Now from value to compound:

IC50 [nM] | SMILES
1 to 10 | CC(C)CN(CC(O)C(Cc1ccc(OCc2ccccn2)cc1)NC(=O)OC1COC2OCCC12)S(=O)(=O)c1ccc(N)cc1 (centres unmarked) [Compound 31]
1 to 10 | CC(C)(CCC#N)CN(CC(O)C(Cc1ccc(OCc2ccccc2)cc1)NC(=O)OC1COC2OCCC12)S(=O)(=O)c1ccc2c(c1)OCO2 (centres unmarked) [Compound 72]
1 to 10 | CC(C)(CCC#N)CN(CC(O)C(Cc1ccc(OCc2ccccc2)cc1)NC(=O)OC1COC2OCCC12)S(=O)(=O)c1ccc(N)cc1 (centres unmarked) [Compound 71]
10 to 100 | CC(C)CN(CC(O)C(Cc1ccc(OCCN2CCOCC2)cc1)NC(=O)OC1COC2OCCC12)S(=O)(=O)c1ccc(N)cc1 (centres unmarked) [Compound 29]
> 100 | COCCN(CCOC)CCOc1ccc(CC(NC(=O)OC2COC3OCCC23)C(O)CN(CC(C)C)S(=O)(=O)c2cccc(N)c2)cc1 (centres unmarked) [Compound 34]
> 100 | COCCN(CCOC)CCOc1ccc(CC(NC(=O)OC2CCOC2)C(O)CN(CC(C)(C)CCC#N)S(=O)(=O)c2ccc3c(c2)OCO3)cc1 (centres unmarked) [Compound 69]
< 1 | CC(C)CN(CC(O)C(Cc1ccc(OCc2ccccc2)cc1)NC(=O)OC1COC2OCCC12)S(=O)(=O)c1ccc2c(c1)OCO2 (centres unmarked) [Compound 46, Bis-THF Methylenedioxybenzenesulfonamide Benzyl Ether]
10 to 100 | CC(C)CN(CC(O)C(Cc1ccc(OCCN2CCOCC2)cc1)NC(=O)OC1COC2OCCC12)S(=O)(=O)c1cccc(N)c1 (centres unmarked) [Compound 37]
10 to 100 | CC(C)CN(CC(O)C(Cc1ccc(OCc2ccccn2)cc1)NC(=O)OC1COC2OCCC12)S(=O)(=O)c1cccc(N)c1 (centres unmarked) [Compound 36]

Same assay, conditions: wild type HIV-1 virus, MT4 cells; read-out: Wildtype virus - IC50

SMILES | IC50 [nM]
CC(C)CN(C[C@@H](O)[C@H](Cc1ccc(OCCCNC(=O)OC(C)C)cc1)NC(=O)O[C@H]1CO[C@H]2OCC[C@H]21)S(=O)(=O)c1ccc2c(c1)OCO2 [Compound 249] | 1 to 10
CCOC(=O)NCCOc1ccc(C[C@H](NC(=O)O[C@H]2CO[C@H]3OCC[C@H]32)[C@H](O)CN(CC(C)C)S(=O)(=O)c2ccc3c(c2)OCO3)cc1 [Compound 245] | 1 to 10
CC(C)CN(C[C@@H](O)[C@H](Cc1ccc(OCc2nccn2Cc2ccccc2)cc1)NC(=O)O[C@H]1CO[C@H]2OCC[C@H]21)S(=O)(=O)c1ccc2c(c1)OCO2 [Compound 394] | 1 to 10
CCOC(=O)NCCCOc1ccc(C[C@H](NC(=O)O[C@H]2CO[C@H]3OCC[C@H]32)[C@H](O)CN(CC(C)C)S(=O)(=O)c2ccc3c(c2)OCO3)cc1 [Compound 246] | 1 to 10
CC(C)CN(C[C@@H](O)[C@H](Cc1ccc(OCCc2cccs2)cc1)NC(=O)O[C@H]1CO[C@H]2OCC[C@H]21)S(=O)(=O)c1ccc2c(c1)OCO2 [Compound 209] | 1 to 10
CC(C)CN(C[C@@H](O)[C@H](Cc1ccc(OCCCCNC(=O)OC(C)C)cc1)NC(=O)O[C@H]1CO[C@H]2OCC[C@H]21)S(=O)(=O)c1ccc2c(c1)OCO2 [Compound 250] | 1 to 10
